Test results reported in ChEMBL document CHEMBL2396542, “Membrane anchoring γ-secretase modulators with terpene-derived moieties” (Bioorg Med Chem Lett, 2013).
pEC50, pIC50: −log10 of the molar value.

Legend:
[1] = molecular target: T1, Presenilin-1 (Homo sapiens, UniProt P49768); assay: Modulation of human gamma-secretase presenilin-1 subunit expressed in CHO cells coexpressing human APP assessed as decrease in amyloid beta 42 generation after 24 hrs by ELISA; assay type: cell-based; details: for pIC50: read-out: IC50; for IC50: read-out: pIC50 (converted)
[2] = Micelle aggregation by compound at 5 to 100 uM by dynamic light scattering assay; assay type: physicochemical
[3] = molecular target: T1, Presenilin-1; assay: Modulation of human gamma-secretase presenilin-1 subunit expressed in CHO cells coexpressing human APP assessed as decrease in amyloid beta 40 generation after 24 hrs by ELISA; assay type: cell-based
[4] = Micelle formation by compound at 5 to 100 uM by dynamic light scattering assay; assay type: physicochemical
[5] = molecular target: T1, Presenilin-1; assay: Modulation of human gamma-secretase presenilin-1 subunit expressed in CHO cells coexpressing human APP assessed as increase in amyloid beta 38 generation at EC50 after 24 hrs by ELISA relative to control; assay type: cell-based
[6] = molecular target: T1, Presenilin-1; assay: Modulation of human gamma-secretase presenilin-1 subunit expressed in CHO cells coexpressing human APP assessed as increase in amyloid beta 38 generation after 24 hrs by ELISA; assay type: cell-based
[7] = Micelle aggregation by compound at 100 uM by dynamic light scattering assay; assay type: physicochemical
[8] = Micelle formation by compound at 100 uM by dynamic light scattering assay; assay type: physicochemical

CCCCCCCCCCCCCCOC(=O)C1(C)CCc2c(C)c(OCC(=O)O)c(C)c(C)c2O1 (stereo not drawn)
pIC50 [1]: 4.66 | IC50 [1]: 39.8 µM | Activity [2]: Not Active | pIC50 [3]: 4.47 | Activity [4]: Not Active | Activity [5]: 95% | pEC50 [6]: 5.22

CCCCCCCCOc1c(C)c(C)c2c(c1C)CCC(C)(C(=O)O)O2 (stereo not drawn)
pIC50 [1]: 4.24 | IC50 [1]: 25.1 µM | Activity [2]: Not Active | pIC50 [3]: < 4.30 | Activity [4]: Not Active | pEC50 [6]: < 4.30

CC(C)=CCC/C(C)=C/CC/C(C)=C/COC(=O)C1(C)CCc2c(C)c(OCC(=O)O)c(C)c(C)c2O1 (stereo not drawn)
pIC50 [1]: 4.57 | IC50 [1]: 39.8 µM | Activity [2]: Not Active | pIC50 [3]: 4.60 | Activity [4]: Not Active | Activity [5]: 35% | pEC50 [6]: 6.00

Cc1c(C)c2c(c(C)c1O)CCC(C)(CCCC(C)CCCC(C)CCCC(C)C)O2 (racemic) [alpha-TOCHOPHEROL]
pIC50 [1]: < 4.00 | pIC50 [3]: < 4.00 | pEC50 [6]: < 4.00

Cc1c(C)c2c(c(C)c1OCC(=O)O)CCC(C)(CCC[C@H](C)CCC[C@H](C)CCCC(C)C)O2 (stereo partly drawn)
pIC50 [1]: 4.96 | IC50 [1]: 31.6 µM | Activity [2]: Not Active | pIC50 [3]: 4.62 | Activity [4]: Not Active | Activity [5]: 55% | pEC50 [6]: 5.22

CCCCCCCCOC(=O)C1(C)CCc2c(C)c(OCC(=O)O)c(C)c(C)c2O1 (stereo not drawn)
pIC50 [1]: 4.46 | Activity [2]: Not Active | pIC50 [3]: 4.38 | Activity [4]: Not Active | Activity [5]: 60% | pEC50 [6]: 4.96

CC(C)=CCC/C(C)=C/CC/C(C)=C/Cn1c2ccc(Cl)cc2c2ccc(C(C)C(=O)O)cc21 (stereo not drawn)
pIC50 [1]: 5.40 | IC50 [1]: 31.6 µM | Activity [2]: Not Active | pIC50 [3]: 4.59 | Activity [4]: Not Active | Activity [5]: 80% | pEC50 [6]: 5.70

CC(C)=CCC/C(C)=C/CC/C(C)=C/COc1c(C)c(C)c2c(c1C)CCC(C)(C(=O)O)O2 (stereo not drawn)
pIC50 [1]: 4.55 | IC50 [1]: 31.6 µM | Activity [2]: Not Active | pIC50 [3]: 4.41 | Activity [4]: Not Active | Activity [5]: 35% | pEC50 [6]: 5.10

CCCCCCCCCCCCCCOc1c(C)c(C)c2c(c1C)CCC(C)(C(=O)O)O2 (stereo not drawn)
pIC50 [1]: 4.85 | IC50 [1]: 31.6 µM | Activity [2]: Not Active | pIC50 [3]: 4.54 | Activity [4]: Not Active | Activity [5]: 40% | pEC50 [6]: 5.05

CCCCCCCCCCCOC(=O)C1(C)CCc2c(C)c(OCC(=O)O)c(C)c(C)c2O1 (stereo not drawn)
pIC50 [1]: 4.92 | IC50 [1]: 31.6 µM | Activity [2]: Not Active | pIC50 [3]: 4.64 | Activity [4]: Not Active | Activity [5]: 100% | pEC50 [6]: 5.30

C/C(=C\COc1c(C)c(C)c2c(c1C)CCC(C)(C(=O)O)O2)CCC[C@H](C)CCC[C@H](C)CCCC(C)C (stereo partly drawn)
pIC50 [1]: 4.59 | IC50 [1]: 39.8 µM | Activity [2]: Not Active | pIC50 [3]: 4.38 | Activity [4]: Not Active | Activity [5]: 35% | pEC50 [6]: 5.00

CCCCCCCCCCCOc1c(C)c(C)c2c(c1C)CCC(C)(C(=O)O)O2 (stereo not drawn)
Activity [7]: Active | pIC50 [1]: 4.55 | IC50 [1]: 31.6 µM | Activity [8]: Active | Activity [2]: Not Active | pIC50 [3]: < 4.30 | Activity [4]: Not Active | Activity [5]: 65% | pEC50 [6]: 5.00

Cc1c(C)c2c(c(C)c1OCC(=O)O)CCC(C)(CCCC(C)CCCC(C)CCCC(C)C)O2 (stereo not drawn)
pIC50 [1]: 4.92 | IC50 [1]: 31.6 µM | Activity [2]: Not Active | pIC50 [3]: 4.59 | Activity [4]: Not Active | Activity [5]: 55% | pEC50 [6]: 5.40

C/C(=C\COC(=O)C1(C)CCc2c(C)c(OCC(=O)O)c(C)c(C)c2O1)CCC[C@H](C)CCC[C@H](C)CCCC(C)C (stereo partly drawn)
pIC50 [1]: 4.62 | IC50 [1]: 39.8 µM | Activity [2]: Not Active | pIC50 [3]: 4.44 | Activity [4]: Not Active | Activity [5]: 135% | pEC50 [6]: 4.89

COC(=O)COc1c(C)c(C)c2c(c1C)CCC(C)(CCCC(C)CCCC(C)CCCC(C)C)O2 (stereo not drawn)
pIC50 [1]: < 4.00 | pIC50 [3]: < 4.00 | pEC50 [6]: < 4.00

C/C(=C\Cn1c2ccc(Cl)cc2c2ccc(C(C)C(=O)O)cc21)CCC[C@H](C)CCC[C@H](C)CCCC(C)C (stereo partly drawn)
pIC50 [1]: 4.64 | IC50 [1]: 39.8 µM | Activity [2]: Not Active | pIC50 [3]: < 4.30 | Activity [4]: Not Active | pEC50 [6]: < 4.30
